# Values of other authors in patent publication US20070071679A1, “Methylamine risks and treatment of hyperactivity, depression, and alcoholism with epinephrine-N-quinolines” (priority 2005, published 2007).
# Where two headings read alike, the source gives them in different places.
# Experiments:
# [1] = test system: sleep-waking cycles of cats; conditions: for restoration of relative proportions of stages of sleep-waking cycles towards baseline: cats treated with monoamine reuptake inhibitor; for paradoxical (REM) sleep / active sleep: dose not given
# active sleep in kittens [2] = conditions: 6-OHDA pretreated, two weeks and one month of postnatal age
# [3] = test system: active sleep in a rat model; conditions: during ontogenetic development
# [4] = test system: paradoxical (REM) sleep in rats; conditions: for percentage of paradoxical (REM) sleep: rats aged 34 months, between 4 and 12 hours after i.p. administration
# cerebral blood flow = conditions: cats
# active sleep in kittens [5] = test system: active sleep in kittens
# [6] = test system: regional cerebral blood flow; conditions: human beings
# [7] = test system: limbic forebrain and cerebellum of rats
# human patients = conditions: antihypertensive treatment
# [8] = test system: prepubertal boys and patients with narcolepsy or symptomatic hypersomnia
# [9] = cats, 0.5 mg/kg of body weight intraperitoneally
compound,measurement,setting,value
CNCCCC1(c2ccccc2)CC(C)(C)c2ccccc21 (centres unmarked) [Prindamine],REM sleep latency,"[1]; cats, i.p. administration",lengthening
same,proportion of time cats are in REM sleep,[1]; during 16 hours after i.p. administration,approximately 7%
Clc1cccc(Cl)c1N=C1NCCN1 [clonidine],active sleep,active sleep in kittens [2]; 0.01 mg/kg i.p.,suppresses active sleep
same,paradoxical sleep (REM sleep),"[1]; mature cats, 0.01 mg/kg i.p.",suppresses paradoxical sleep
CC(C)NCC(O)c1ccc(O)c(O)c1 (centres unmarked) [isoproterenol],active sleep,[3],increase active sleep
Cc1ccc(N(CC2=NCCN2)c2cccc(O)c2)cc1 [phentolamine],restoration of relative proportions of stages of sleep-waking cycles towards baseline,[1],restores significantly
same,paradoxical (REM) sleep / active sleep,[1]; mature cats,increase active sleep
same,frequency of REM sleep episodes in sleep-waking cycles,[4]; rats,increases the frequency of REM sleep episodes
same,percentage of paradoxical (REM) sleep,[4],increase
same,cerebral blood flow,cerebral blood flow,doubled
same,active sleep,active sleep in kittens [5],increase active sleep
same,regional cerebral blood flow,[6],does not affect
same,duration of the episodes cats were in REM sleep,"REM sleep of cats; REM sleep deprivation plus 20 mg/kg i.p. at the beginning of recovery, n.s.",6.5 ± 1.9 min
same,number of REM episodes,REM sleep of cats; given at the beginning of recovery after REM sleep deprivation,did not affect
CC(C)NCC(O)COc1cccc2[nH]ccc12 (centres unmarked) [pindolol],amount of REM sleep,"[1]; cats, 0.1 mg/kg of body weight intraperitoneally",not
same,amount of REM sleep,[1]; [9],increases the amount of REM sleep
same,amount of drowsy wakefulness,[1]; [9],increases the amount of drowsy wakefulness
COc1cc2nc(N3CCN(C(=O)c4ccco4)CC3)nc(N)c2cc1OC [prazosin],active sleep,active sleep in kittens [2]; 0.5 mg/kg i.p.,does not affect active sleep
same,restoration of relative proportions of stages of sleep-waking cycles towards baseline,[1],not
same,paradoxical sleep,"[1]; mature cats, 0.5 mg/kg i.p.",increases paradoxical sleep
same,paradoxical (REM) sleep / active sleep,[1]; mature cats,increases paradoxical (REM) sleep
same,percentage of paradoxical (REM) sleep,[4],increase
CC(C)NC[C@H](O)COc1ccc(O)cc1 [prenalterol],paradoxical (REM) sleep / active sleep,[1]; mature cats,increases the amount of paradoxical (REM) sleep
CC(C)NCC(O)COc1cccc2ccccc12 (centres unmarked) [propranolol],restoration of relative proportions of stages of sleep-waking cycles towards baseline,[1],not
same,concentrations of serotonin and 5-HIAA,[7]; after exposure during early development,lack of effect
same,content of norepinephrine in the limbic forebrain and cerebellum,[7]; at the age of five months after early postnatal exposure,increased content of norepinephrine
COC(=O)[C@H]1[C@H]2C[C@@H]3c4[nH]c5cc(OC)ccc5c4CCN3C[C@H]2C[C@@H](OC(=O)c2cc(OC)c(OC)c(OC)c2)[C@@H]1OC [reserpine],share of treated patients with clinical depression,human patients,one fourth
COC(=O)[C@@H]1[C@H]2C[C@H]3c4[nH]c5ccccc5c4CCN3C[C@@H]2CC[C@@H]1O [yohimbine],restoration of relative proportions of stages of sleep-waking cycles towards baseline,[1],not
arginine-vasotocin,rapid eye movement sleep,[8],induce rapid eye movement sleep
